Results on three compounds are retold here after patent US3987028A, “Antibiotic 20,798 R.P” (Rhone-Poulenc S.A., priority 1968, dated 1976).

The nature of series [1]: solubility. The class given is physicochemical.
A short description of series [2]: stability to acid treatment of the fermentation broth. It is filed as physicochemical. The settings on record: 10° to 75° C., 48 hours to 30 minutes. As to the method: When desired, the fermentation broth can, before the extraction procedures, be treated with an acid at a temperature between 10° and 75° C. for a period of from 48 hours to 30 minutes, the length of time varying inversely with the temperature, so as to enrich the antibiotic 9865 R.P. with daunorubicin. […] For acidification of the fermentation broth inorganic acids (hydrochloric, phosphoric or sulphuric acid) or organic acids (acetic or oxalic acid etc.) are suitable at various concentrations, but preferably hydrochloric acid or oxalic acid is used at concentrations of between 0.01N and 1N. The hydrolysis is preferably carried out for a period of from 15 hours to 1 hour at a temperature of from 20° C. to 50° C., the length of time varying inversely with the temperature.

For series [3], the system named is Staphylococcus aureus, strain 209 P ATCC 6538 P. The class given is cell-based. The settings on record: ATCC6538; Staphylococcus aureus 209 P ATCC 6538 P; read-out: Minimal inhibitory concentration. As to the method: (§1) The bacteriostatic activity of 20,798 R.P. was determined by one of the dilution methods usually employed for this purpose. For each microorganism the minimum concentration of antibiotic, which under specified conditions inhibits all visible development of the microorganism in an appropriate nutrient medium, was determined. The results of the various determinations are collected in Table III below, in which the minimum bacteriostatic concentrations are expressed in micrograms of substance per cc. of test medium.

Series [4] deals with Mycobacterium para-smegmatis (A 75, Lausanne). The class given is cell-based. As to conditions: read-out: Minimal inhibitory concentration. How it is done:
as §1

The subject of series [5] is Streptococcus pyogenes hemolyticus (strain Dig. 7, Institut Pasteur). It is filed as cell-based. As to conditions: read-out: Minimal inhibitory concentration. How it is done: as §1
The subject of series [6] is Neisseria catarrhalis A 152. It is filed as cell-based. The settings on record: A152, read-out: Minimal inhibitory concentration. How it is done: as §1
The subject of series [7] is Klebsiella pneumoniae ATCC 10,031. It is filed as cell-based. The settings on record: read-out: Minimal inhibitory concentration. As to the method: as §1
For series [8], the system named is Salmonella paratyphi A (Lacasse, Institut Pasteur). The class given is cell-based. The settings on record: Salmonella enterica, read-out: Minimal inhibitory concentration. As to the method:
as §1

Series [9] has as its system Sarcina lutea ATCC 9341. The class given is cell-based. As to conditions: Micrococcus luteus, ATCC9341, read-out: Minimal inhibitory concentration. As to the method: as §1
Series [10] deals with Bacillus subtilis (ATCC 6633). It is filed as cell-based. The settings on record: ATCC6633, read-out: Minimal inhibitory concentration. How it is done:
as §1

The test system of series [11] is Mycobacterium smegmatis ATCC 607. The class given is cell-based. The settings on record: Mycolicibacterium smegmatis, ATCC607, read-out: Minimal inhibitory concentration. How it is done: as §1
Series [12] relates to Mycobacterium phlei (Bacteriological Institute of Lyon). It is filed as cell-based. The settings on record: Mycolicibacterium phlei, read-out: Minimal inhibitory concentration. As to the method:
as §1

The test system of series [13] is Diplococcus pneumoniae (strain Til, Institut Pasteur). It is filed as cell-based. The settings on record: Streptococcus pneumoniae, read-out: Minimal inhibitory concentration. As to the method: as §1
Series [14] deals with Lactobacillus casei ATCC 7469. The class given is cell-based. The settings on record: Lacticaseibacillus casei, ATCC7469, read-out: Minimal inhibitory concentration. How it is done:
as §1

The subject of series [15] is Streptococcus faecalis (Faculty of Pharmacy, Paris). The class given is cell-based. As to conditions: Enterococcus faecalis, read-out: Minimal inhibitory concentration. How it is done:
as §1

Series [16] concerns Proteus X 19. The class given is cell-based. As to conditions: read-out: Minimal inhibitory concentration. As to the method:
as §1

For series [17], the system named is Pasteurella multocida (A 125, Institut Pasteur). The class given is cell-based. The settings on record: read-out: Minimal inhibitory concentration. As to the method:
as §1

The test system of series [18] is sarcoma 180. The experiment in a line: anti-tumor activity in mice, sarcoma 180.
Series [19] relates to Brucella bronchiseptica (CN 387 - Wellcome Institute). The series can be described thus: microbe, parasite or virus in culture. As to conditions: Bordetella bronchiseptica, read-out: Minimal inhibitory concentration. It is filed as cell-based.
Series [20] in a line: toxicity on mice (LD50). As to conditions: mouse, in vivo, ip, intra-peritoneal (i.p.), read-out: 50% lethal dose (LD50). How it is done: The toxicity of 20,798 R.P. has been studied principally on mice. The 50% lethal dose or LD50 was determined intra-peritoneally: […]
Series [21] deals with leucaemia L 1210. The experiment in a line: anti-tumor activity in mice, leucaemia L 1210.

In brackets after ≈: the same amount, converted by molar mass. Where a name gives a salt, the structure may show the parent alone. Where only a bound is given, the exact number is not on record here.

As for `COc1cccc2c1C(=O)c1c(O)c3c(c(O)c1C2=O)CC(O)(C(C)O)CC3OC1CC(N)C(O)C(C)O1` (stereo not shown) [20,798 R.P. hydrochloride], the Solubility result in series [1] (alcohols) is “soluble”; in [1] (benzene), “practically insoluble”; in series [1] (chloroform), “sparingly soluble”; in series [1] (diethyl ether), “practically insoluble”; in series [1] (water), “soluble”.

For the compound `COc1cccc2c1C(=O)c1c(O)c3c(c(O)c1C2=O)CC(O)(C(C)O)CC3OC1CC(N)C(O)C(C)O1` (stereo not shown) [20,798 R.P.], the “hydrolysis under acid treatment” value in [2] is given as “not hydrolysed”. For the same compound, the MIC was 100 µg/mL (≈ 189 µM) in series [3]; 3.1 µg/mL (≈ 5.85 µM) in series [4]; 11 µg/mL (≈ 20.8 µM) in [5]; above 28 µg/mL in series [6]; above 330 µg/mL in series [7]; above 83 µg/mL in series [8]. In addition, the MIC in series [9] was 12 µg/mL (≈ 22.7 µM); in [10] it was 21 µg/mL (≈ 39.7 µM); in series [11] it was 5.8 µg/mL (≈ 11 µM); in series [12] it was 3.1 µg/mL (≈ 5.85 µM); in series [13] it was 6.1 µg/mL (≈ 11.5 µM); in [14], 24 µg/mL (≈ 45.3 µM). The MIC in series [15] was above 33 µg/mL; in [16], above 83 µg/mL; in [17], 14 µg/mL (≈ 26.4 µM); in [19], 170 µg/mL (≈ 321 µM). Besides, the ED50 in [18] (Mus musculus, Sarcoma-180, sc, read-out: 50% active dose (AD50)) stood at 0.75 mg/kg; in [21] (Mus musculus, L1210, ip, read-out: 50% active dose (AD50)) it was 0.8 mg/kg. The anti-tumor activity entry is recorded as “particularly active” in series [18] (graftable tumours of mice, solid form of sarcoma 180) and “particularly active” in series [21] (graftable tumours of mice, leucaemia L 1210). Also, the 50% lethal dose (LD50) in series [20] was 6.5 mg/kg.

In the case of `COc1cccc2c1C(=O)c1c(O)c3c(c(O)c1C2=O)CC(O)(C(C)O)CC3O` (stereo not shown) [aglycone of 20,798 R.P.], the Solubility entry is listed as “very sparingly soluble” in series [1] (benzene); “sparingly soluble” in [1] (chloroform); “practically insoluble” in series [1] (diethyl ether); “sparingly soluble” in series [1] (ethyl acetate); “practically insoluble” in series [1] (hexane); “sparingly soluble” in [1] (methanol). For the same compound, the Solubility result in series [1] (water) was “practically insoluble”.
